Measurements as given in PMC10390652 (Inorganic chemistry, 2023).

Test: Biodistribution in healthy mice
Type: in vivo, female Balb/c mice
Conditions: in saline

[47Sc+3].[Cl-].[Cl-].[Cl-] [free ^47Sc]
biodistribution pattern at 1 hour (n=4): more widespread uptake within heart, lungs, spleen, kidney, and femur
biodistribution pattern at 1 hour (n=4, listed as [^47Sc]ScCl3): widespread biodistribution with uptake seen in heart, spleen and kidneys along with the liver, and intestines
